Data set [1] concerns the target Serine/threonine-protein kinase PLK1 (Homo sapiens, UniProt P53350). Kind of data set: Inhibition of recombinant GST-tagged PLK1 using biotin-ahx-AKMETTFYDDALNASFLPSEKKK-amide as substrate after 30 mins by scintillation counting analysis in presence of gamma-[33P]ATP.
The test system of another data set is MIA PaCa-2. The experiment in a line: Antitumor activity against human MIAPaCa2 cells xenografted in SCID mouse assessed as tumor growth inhibition at 120 mg/kg/day, ip measured on day 21 to day 44 relative to vehicle-treated control. The format is functional, organism-based.
The nature of data set [2]: Half life in mouse. The format is ADME, organism-based. The conditions noted are these: in vivo.
Data set [3] in a line: Oral bioavailability in mouse. The format is ADME, organism-based. The conditions noted are these: in vivo.

Active and inactive are the calls of the source. The rule behind the calls is not given here.

Sequence of Serine/threonine-protein kinase PLK1 (P53350 whole entry): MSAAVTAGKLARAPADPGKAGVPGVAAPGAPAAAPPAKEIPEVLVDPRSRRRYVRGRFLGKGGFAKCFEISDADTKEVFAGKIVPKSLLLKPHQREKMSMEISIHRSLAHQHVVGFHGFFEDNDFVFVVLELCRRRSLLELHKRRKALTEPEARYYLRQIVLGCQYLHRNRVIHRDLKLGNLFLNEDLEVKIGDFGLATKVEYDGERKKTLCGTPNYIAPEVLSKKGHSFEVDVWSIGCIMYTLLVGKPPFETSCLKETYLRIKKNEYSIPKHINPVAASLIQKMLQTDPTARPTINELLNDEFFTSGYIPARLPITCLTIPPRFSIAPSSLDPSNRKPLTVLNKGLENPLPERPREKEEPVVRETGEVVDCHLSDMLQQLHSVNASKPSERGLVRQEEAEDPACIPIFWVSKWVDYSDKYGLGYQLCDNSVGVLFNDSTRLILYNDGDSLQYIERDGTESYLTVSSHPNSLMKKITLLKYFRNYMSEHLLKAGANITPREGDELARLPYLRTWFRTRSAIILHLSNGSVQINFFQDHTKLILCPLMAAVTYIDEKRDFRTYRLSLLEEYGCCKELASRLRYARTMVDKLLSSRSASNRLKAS

In general, Ki refers to a measure of affinity in units of concentration, obtained from inhibition or displacement. In the case of `C[C@@H](Nc1nccc(Nc2c(N[C@H](C)C(C)(C)C)c(=O)c2=O)n1)c1ccccc1`, the Ki in data set [1] turned out to be 9930 nM. As for `CC(C)CC(C)Nc1c(Nc2ccnc(Nc3ccc(-c4ccccc4)cc3)n2)c(=O)c1=O` (centres undefined), in data set [1], the Ki is 1180 nM. On the same count and under the same terms, next, `C[C@@H](Nc1c(Nc2ccnc(Nc3cccc(-c4ccccc4)c3)n2)c(=O)c1=O)C(C)(C)C`: 333 nM.

`O=c1c(Nc2ccc(OC(F)(F)F)cc2)c(Nc2ccnc(Nc3ccc(-c4ccccc4)cc3)n2)c1=O`: the Ki in data set [1] is 17600 nM.

In the case of `CC(C)(C)Nc1c(Nc2ccnc(Nc3ccc4c(c3)[nH]c3ccccc34)n2)c(=O)c1=O`, the Ki in data set [1] was 10 nM. The same measure, in the same setting: under `C[C@H](Nc1c(Nc2ccnc(Nc3ccc(-c4ccccc4)cc3)n2)c(=O)c1=O)C(C)(C)C` stands 47 nM. Same read-out and setting: next, `C[C@@H](Nc1c(Nc2ccnc(Nc3ccc(-c4ccccc4)cc3)n2)c(=O)c1=O)C(C)(C)C`: 75 nM; `CC(Nc1c(Nc2ccnc(Nc3ccc(-c4ccccc4)cc3)n2)c(=O)c1=O)c1ccccc1` (centres undefined): 24900 nM. The same measure, in the same setting: next, `COc1ccc(Nc2nccc(Nc3c(N[C@H](C)C(C)(C)C)c(=O)c3=O)n2)c(OC)c1`: 771 nM; `CC(C)(C)Nc1c(Nc2ccnc(Nc3ccc4c(c3)CCO4)n2)c(=O)c1=O`: 22 nM.

`Nc1ccn([C@@H]2O[C@H](CO)[C@@H](O)C2(F)F)c(=O)n1`: the TGI result in the data set on MIA PaCa-2 was “Active”. In general, half-life refers to the time in which the quantity being followed falls by half. The low end stands for fast loss, the high end for slow loss. The term bioavailability denotes the share of a dose that reaches the circulation, judged against a reference dose that is usually intravenous. Read a low bioavailability as poor availability. `C[C@@H](Nc1c(Nc2ccncc2)c(=O)c1=O)C(C)(C)C` showed a half-life in data set [2] of 23.4 min. Besides, the bioavailability in data set [3] is 54%.

Regarding `COc1cc(Nc2nccc(Nc3c(N[C@H](C)C(C)(C)C)c(=O)c3=O)n2)cc(OC)c1OC`, the Ki in data set [1] is 234 nM. Still for that read-out and setting: next, `C[C@@H](Nc1c(Nc2ccnc(Nc3ccc4c(c3)OCO4)n2)c(=O)c1=O)C(C)(C)C`: 165 nM; `CC(C)(C)Nc1c(Nc2ccnc(Nc3ccc(-c4csnn4)cc3)n2)c(=O)c1=O`: 15 nM; `C[C@@H](Nc1c(Nc2ccnc(Nc3cccnc3)n2)c(=O)c1=O)C(C)(C)C`: above 44000 nM. In the case of `CC(C)(C)Nc1c(Nc2ccnc(Nc3ccc(-c4cn[nH]c4)cc3)n2)c(=O)c1=O`, the Ki in data set [1] stood at 10 nM. `CC(C)(C)Nc1c(Nc2ccnc(Nc3ccc4c(c3)Cc3ccccc3-4)n2)c(=O)c1=O`: the Ki in data set [1] stood at 4 nM.

Consider `O=c1c(NCC2CC2)c(Nc2ccnc(Nc3ccc(-c4ccccc4)cc3)n2)c1=O`, for which the Ki in data set [1] turned out to be 14000 nM. Still for that read-out and setting: next, `Cc1ccc(Nc2nccc(Nc3c(N[C@H](C)C(C)(C)C)c(=O)c3=O)n2)cc1`: 1010 nM; `C[C@@H](Nc1c(Nc2ccnc(Nc3ccccc3)n2)c(=O)c1=O)C(C)(C)C`: 465 nM. For the compound `C[C@@H](Nc1c(Nc2ccnc(Nc3ccc4c(c3)Cc3ccccc3-4)n2)c(=O)c1=O)C(C)(C)C`, the inhibitory constant (Ki) in data set [1] was found to be 41 nM. Same read-out and setting: next, `CC(C)(C)Nc1c(Nc2ccnc(Nc3ccc(-c4ccccc4)cc3)n2)c(=O)c1=O`: 14 nM. As to `C[C@@H](Nc1c(Nc2ccnc(Nc3ccc(OC(F)(F)F)cc3)n2)c(=O)c1=O)C(C)(C)C`, the Ki in data set [1] turned out to be 610 nM. On to `CC(=O)N1CCc2cc(Nc3nccc(Nc4c(NC(C)(C)C)c(=O)c4=O)n3)ccc21`, for which the Ki in data set [1] amounted to 20 nM. On the same count and under the same terms, next, `C[C@@H](Nc1c(Nc2cccnc2)c(=O)c1=O)C(C)(C)C`: above 44000 nM. On to `CC(C)(C)CNc1c(Nc2ccnc(Nc3ccc(-c4ccccc4)cc3)n2)c(=O)c1=O`, for which the Ki in data set [1] amounted to 1800 nM. For the compound `C[C@@H](Nc1c(Nc2ccnc(Nc3ccc(Br)cc3)n2)c(=O)c1=O)C(C)(C)C`, the Ki in data set [1] came out at 354 nM. `CC(C)(C)Nc1c(Nc2ccnc(Nc3ccc(N4CCOCC4)cc3)n2)c(=O)c1=O`: the Ki in data set [1] turned out to be 175 nM. The same measure, in the same setting: next, `C[C@@H](Nc1c(Nc2ccnc(Nc3cccc4ccccc34)n2)c(=O)c1=O)C(C)(C)C`: 315 nM; `C[C@@H](Nc1c(Nc2ccnc(Nc3ccc4ccccc4c3)n2)c(=O)c1=O)C(C)(C)C`: 85 nM; `CC(C)(C)Nc1c(Nc2ccnc(Nc3ccc(-c4cccnc4)cc3)n2)c(=O)c1=O`: 28 nM. Take `COc1ccc(Nc2nccc(Nc3c(N[C@H](C)C(C)(C)C)c(=O)c3=O)n2)cc1`: the Ki in data set [1] came out at 141 nM.

For `C[C@@H](Nc1c(Nc2ccccc2)c(=O)c1=O)C(C)(C)C`, in data set [1], the Ki came to 32000 nM. Same read-out and setting: under `COc1cc(Nc2ncc(C#N)c(Nc3c(N[C@H](C)C(C)(C)C)c(=O)c3=O)n2)cc(OC)c1OC` stands 7720 nM; under `C[C@@H](Nc1c(Nc2ccnc(Nc3ccc(F)cc3)n2)c(=O)c1=O)C(C)(C)C`, 232 nM. Still for that read-out and setting: next, `O=c1c(NCCN2CCOCC2)c(Nc2ccnc(Nc3ccc(-c4ccccc4)cc3)n2)c1=O`: 8530 nM; `C[C@@H](Nc1c(Nc2ccnc(Nc3ccccn3)n2)c(=O)c1=O)C(C)(C)C`: 40800 nM. Take `CC(C)C(C)Nc1c(Nc2ccnc(Nc3ccc(-c4ccccc4)cc3)n2)c(=O)c1=O` (centres undefined): the Ki in data set [1] came out at 166 nM. Same read-out and setting: under `CC(C)(C)Nc1c(Nc2ccnc(Nc3ccc(-c4ccccn4)cc3)n2)c(=O)c1=O` stands 82 nM.

For `C[C@@H](Nc1c(Nc2ccnc(Nc3ccc4c(c3)OCCO4)n2)c(=O)c1=O)C(C)(C)C`, in data set [1], the Ki worked out at 255 nM. Same read-out and setting: next, `CC(C)(C)Nc1c(Nc2ccnc(Nc3ccc4ncsc4c3)n2)c(=O)c1=O`: 43 nM; `CC(C)(C)Nc1c(Nc2ccnc(Nc3ccc4[nH]ncc4c3)n2)c(=O)c1=O`: 17 nM; `CC(C)(C)Nc1c(Nc2nc(Nc3ccc4c(c3)Cc3ccccc3-4)ncc2F)c(=O)c1=O`: above 8800 nM. For `C[C@@H](Nc1c(Nc2ccnc(Nc3ccc(Oc4ccccc4)cc3)n2)c(=O)c1=O)C(C)(C)C`, the Ki in data set [1] worked out at 276 nM. Same read-out and setting: next, `C[C@@H](Nc1c(Nc2ccnc(Nc3ccc(Cl)cc3)n2)c(=O)c1=O)C(C)(C)C`: 272 nM; `C[C@@H](Nc1c(Nc2ccnc(Nc3ccncc3)n2)c(=O)c1=O)C(C)(C)C`: above 44000 nM; `CCC(C)(C)Nc1c(Nc2ccnc(Nc3ccc(-c4ccccc4)cc3)n2)c(=O)c1=O`: 13 nM.
